According to patent publication US9156790B2, “Anticancer P21-activated kinase inhibitors” (Ohio State Innovation Foundation, priority 2013, dated 2015):
“Also recorded” adds a separate entry of the source. Read-outs that look alike come from different tables or passages of the source.

Tests used:
CaMKI = CaMKI (Homo sapiens, UniProt Q14012); assay: Kinase profiling panel: CaMKI; assay type: biochemical; settings: 5 μM compound; average of triplicate
Protocol: (§1) To further probe the selectivity of the compounds 4 and 15, they were subjected for kinase profiling service for screening against a panel of other kinases selected based on the kinase tree at 5 μM concentration, at or above the IC50 for the two compounds versus PAK in both in vitro and cell-based assays. […] PAK1 was not available for testing using this system thus it was not possible to compare directly in this assay system.

CDK1/cyclinB = CDK1/cyclinB (Homo sapiens, UniProt P06493); assay: Kinase profiling panel: CDK1/cyclinB; assay type: biochemical; settings: 5 μM compound; average of triplicate
Protocol: as §1

CDK5/p25 = CDK5/p25 (Homo sapiens, UniProt Q00535); assay: Kinase profiling panel: CDK5/p25; assay type: biochemical; settings: 5 μM compound; average of triplicate
Protocol: as §1

FGFR2 = FGFR2 (Homo sapiens, UniProt P21802); assay: Kinase profiling panel: FGFR2; assay type: biochemical; settings: 5 μM compound; average of triplicate
Protocol: as §1

GSK3β = GSK3β (Homo sapiens, UniProt P49841); assay: Kinase profiling panel: GSK3β; assay type: biochemical; settings: 5 μM compound; average of triplicate
Protocol: as §1

IGF-1R, activated = IGF-1R, activated (Homo sapiens, UniProt P08069); assay: Kinase profiling panel: IGF-1R, activated; assay type: biochemical; settings: 5 μM compound; average of triplicate
Protocol: as §1

JAK2 = JAK2 (Homo sapiens, UniProt O60674); assay: Kinase profiling panel: JAK2; assay type: biochemical; settings: 5 μM compound; average of triplicate
Protocol: as §1

PAK3 = PAK3 (Homo sapiens, UniProt O75914); assay: Kinase profiling panel: PAK3; assay type: biochemical; settings: 5 μM compound; average of triplicate
Protocol: as §1

PAK6 = PAK6 (Homo sapiens, UniProt Q9NQU5); assay: Kinase profiling panel: PAK6; assay type: biochemical; settings: 5 μM compound; average of triplicate
Protocol: as §1

PKBβ = PKBβ (Homo sapiens, UniProt P31751); assay: Kinase profiling panel: PKBβ; assay type: biochemical; settings: read-out: % activity vs. DMSO, PKBβ
Protocol: as §1

PKBγ = PKBγ (Homo sapiens, UniProt Q9Y243); assay: Kinase profiling panel: PKBγ; assay type: biochemical; settings: 5 μM compound; for remaining activity at 5 µM: average of triplicate, read-out: % activity vs. DMSO, PKBγ
Protocol: as §1

PKCδ = PKCδ (Homo sapiens, UniProt Q05655); assay: Kinase profiling panel: PKCδ; assay type: biochemical; settings: 5 μM compound; average of triplicate
Protocol: as §1

Ret = Ret (Homo sapiens, UniProt P07949); assay: Kinase profiling panel: Ret; assay type: biochemical; settings: 5 μM compound; average of triplicate
Protocol: as §1

[1] = system: PDK1 phosphorylation of Akt (Thr308); assay: Western blot, PDK1 phosphorylation of Akt (Thr308) in thyroid cancer cells; assay type: cell-based, Human; settings: BCPAP; for PDK1 phosphorylation of Akt (Thr308) (Western blot): 7.5 μM, 6 h, FTC133 and TPC1 cells (FIG. 3); for Dose-dependency of PDK-mediated Akt phosphorylation: dose-response, 6 hours, FTC133 and TPC1 cells (FIG. 4A)
Protocol: Protein isolation and Western blot were performed as previously described. Ringel et al., Cancer research 61:6105-6111 (2001). 25 μg of total cell lysates were loaded into 4-12% SDS-PAGE, electrophoresed, and transferred to nitrocellulose membranes for immunoblotting. Primary antibodies against Akt (#9272), phospho-Akt (Thr308) (#2965), p44/42 MAPK (Erk1/2) (#9107), phospho-p44/42 MAPK (Erk1/2) (Thr202/Tyr204) (#4377) and GAPDH (#2118) were obtained from Cell Signaling Technology (Danvers, Mass., USA). Antibody against Vimentin (V6630) and phospho-Ser55 Vimentin were from Sigma-Aldrich, Inc. (St. Louis, Mo.) and MBL Co. (Nagoya, Japan), respectively. Antibodies against total and phosphorylated S6 were from Cell Signaling Technology®.
The ability of the compounds with in vitro anti-PAK1 activity was assessed for activity […] in thyroid cancer cells. In addition, because the compounds are based on the structure of a PDK1 inhibitor, PDK1 inhibitory activity was also assessed. Inhibitory activity in cells was estimated using Western blot with primary antibodies directed against kinase-specific phosphorylation sites; serine 56 of vimentin for PAK and threonine 308 of Akt for PDK1. BCPAP, TPC1, and FTC133 thyroid cancer cells were utilized. BCPAP and TPC1 are derived from PTC and have BRAF V600E and RET/PTC1 rearrangements, respectively. FTC133 is derived from a follicular thyroid cancer with an inactivating mutation of PTEN. Similar to the kinase screening assay, cells were treated with the six compounds or OSU-03012 at 7.5 μM concentration or with DMSO vehicle alone. The results were not entirely consistent across the three cell lines presumably related to mutation status or other factors. OSU-03012 inhibited both PDK1 and PAK-mediated phosphorylation of targets as predicted.
The dose-dependency of compounds 4 and 15 was next assessed (FIG. 4). […] Due to the important role that ERK activation plays in thyroid cancer, and its signaling activation by thyroid oncogenes, the effects of the compounds on ERK phosphorylation was also assessed.

BCPAP cells = assay: Boyden chamber migration assay, BCPAP; assay type: cell-based, Human; settings: 2.5 μM and 5.0 μM, 12 hours, P<0.05 versus DMSO
Protocol: Cells were grown in media containing 10% FBS. After 24 hours, the medium was aspirated, and media containing 1% FBS was added for 24 hours. The cells were trypsinized for 2 to 5 minutes, washed, and resuspended in media containing 1% FBS. The cell concentration was calculated by hemocytometer. Four hundred μl 1% FBS medium was added into 24-well plates, and a Boyden chamber (8 μm pore) was inserted into each well. Cells were added to each insert, and were allowed to attach in an incubator at 37° C. at 5% CO2 for 2 hours. The cells were then exposed to various concentrations of drugs or control diluent for 3 hours. The inserts were switched to a new well containing media containing 10% FBS, and the chamber was incubated for 12 or 24 hours depending on the migration rate of the cell line. The cells on and under the Boyden chamber membrane were fixed with 3.7% formaldehyde containing 0.05% crystal violet for 15 min after washing cells with PBS. The chambers were washed with distilled water. […] The Q-tips containing the scraped cells and the Boyden chamber containing the non-migrated cells were separately incubated in 80% methanol, shaken at 500 g for 30 minutes, and the extracted dye was measured at 570 nm. Migration was quantified as the ratio of the migrated cells over the total cells (non-migrated plus […]). […]

PKBγ, sequence (Q9Y243 whole entry, species assumed): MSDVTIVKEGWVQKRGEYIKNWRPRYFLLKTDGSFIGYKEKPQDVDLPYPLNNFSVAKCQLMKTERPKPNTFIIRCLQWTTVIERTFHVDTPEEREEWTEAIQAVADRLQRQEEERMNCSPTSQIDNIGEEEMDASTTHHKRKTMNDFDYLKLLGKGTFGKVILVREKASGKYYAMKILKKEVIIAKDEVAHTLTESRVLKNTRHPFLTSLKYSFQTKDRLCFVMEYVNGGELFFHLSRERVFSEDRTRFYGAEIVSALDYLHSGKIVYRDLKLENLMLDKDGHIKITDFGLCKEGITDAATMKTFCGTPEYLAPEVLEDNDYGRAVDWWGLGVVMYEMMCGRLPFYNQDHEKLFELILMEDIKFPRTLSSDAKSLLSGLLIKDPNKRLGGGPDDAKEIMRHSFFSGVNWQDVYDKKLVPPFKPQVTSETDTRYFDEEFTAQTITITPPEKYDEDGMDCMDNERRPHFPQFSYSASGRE
IGF-1R, activated, sequence (P08069 31-1367): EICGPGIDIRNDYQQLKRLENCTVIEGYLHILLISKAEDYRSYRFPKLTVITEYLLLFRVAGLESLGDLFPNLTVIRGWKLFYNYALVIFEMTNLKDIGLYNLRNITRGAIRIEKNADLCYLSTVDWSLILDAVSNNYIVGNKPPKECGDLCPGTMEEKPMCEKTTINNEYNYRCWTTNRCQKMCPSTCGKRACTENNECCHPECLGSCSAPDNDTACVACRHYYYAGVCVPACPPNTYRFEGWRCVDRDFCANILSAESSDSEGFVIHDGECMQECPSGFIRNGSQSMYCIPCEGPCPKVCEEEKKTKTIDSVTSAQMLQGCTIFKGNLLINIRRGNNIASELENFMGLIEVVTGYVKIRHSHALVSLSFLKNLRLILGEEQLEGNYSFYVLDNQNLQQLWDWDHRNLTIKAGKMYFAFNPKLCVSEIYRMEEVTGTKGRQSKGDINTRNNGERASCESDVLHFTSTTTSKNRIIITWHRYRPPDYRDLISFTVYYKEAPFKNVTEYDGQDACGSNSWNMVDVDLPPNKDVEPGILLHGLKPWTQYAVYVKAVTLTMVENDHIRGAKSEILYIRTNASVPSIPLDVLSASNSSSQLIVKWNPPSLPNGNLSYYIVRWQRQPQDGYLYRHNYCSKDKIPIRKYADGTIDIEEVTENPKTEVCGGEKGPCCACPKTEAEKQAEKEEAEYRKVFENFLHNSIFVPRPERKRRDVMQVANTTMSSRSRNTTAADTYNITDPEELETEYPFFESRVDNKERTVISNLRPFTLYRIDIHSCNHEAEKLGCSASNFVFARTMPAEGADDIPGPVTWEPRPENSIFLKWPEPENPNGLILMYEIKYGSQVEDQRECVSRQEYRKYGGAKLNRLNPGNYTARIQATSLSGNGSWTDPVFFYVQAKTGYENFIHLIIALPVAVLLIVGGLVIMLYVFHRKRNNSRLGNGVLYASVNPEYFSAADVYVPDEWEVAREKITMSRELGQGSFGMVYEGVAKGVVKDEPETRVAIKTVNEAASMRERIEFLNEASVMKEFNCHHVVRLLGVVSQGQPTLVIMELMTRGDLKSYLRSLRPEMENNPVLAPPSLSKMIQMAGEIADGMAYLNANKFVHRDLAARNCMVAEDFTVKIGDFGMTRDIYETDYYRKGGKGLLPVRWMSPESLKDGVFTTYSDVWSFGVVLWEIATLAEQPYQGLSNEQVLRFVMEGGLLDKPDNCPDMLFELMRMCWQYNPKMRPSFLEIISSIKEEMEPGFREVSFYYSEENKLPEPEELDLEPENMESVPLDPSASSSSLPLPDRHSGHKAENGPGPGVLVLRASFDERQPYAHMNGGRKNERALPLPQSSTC
Ret, sequence (P07949 29-1114, species assumed): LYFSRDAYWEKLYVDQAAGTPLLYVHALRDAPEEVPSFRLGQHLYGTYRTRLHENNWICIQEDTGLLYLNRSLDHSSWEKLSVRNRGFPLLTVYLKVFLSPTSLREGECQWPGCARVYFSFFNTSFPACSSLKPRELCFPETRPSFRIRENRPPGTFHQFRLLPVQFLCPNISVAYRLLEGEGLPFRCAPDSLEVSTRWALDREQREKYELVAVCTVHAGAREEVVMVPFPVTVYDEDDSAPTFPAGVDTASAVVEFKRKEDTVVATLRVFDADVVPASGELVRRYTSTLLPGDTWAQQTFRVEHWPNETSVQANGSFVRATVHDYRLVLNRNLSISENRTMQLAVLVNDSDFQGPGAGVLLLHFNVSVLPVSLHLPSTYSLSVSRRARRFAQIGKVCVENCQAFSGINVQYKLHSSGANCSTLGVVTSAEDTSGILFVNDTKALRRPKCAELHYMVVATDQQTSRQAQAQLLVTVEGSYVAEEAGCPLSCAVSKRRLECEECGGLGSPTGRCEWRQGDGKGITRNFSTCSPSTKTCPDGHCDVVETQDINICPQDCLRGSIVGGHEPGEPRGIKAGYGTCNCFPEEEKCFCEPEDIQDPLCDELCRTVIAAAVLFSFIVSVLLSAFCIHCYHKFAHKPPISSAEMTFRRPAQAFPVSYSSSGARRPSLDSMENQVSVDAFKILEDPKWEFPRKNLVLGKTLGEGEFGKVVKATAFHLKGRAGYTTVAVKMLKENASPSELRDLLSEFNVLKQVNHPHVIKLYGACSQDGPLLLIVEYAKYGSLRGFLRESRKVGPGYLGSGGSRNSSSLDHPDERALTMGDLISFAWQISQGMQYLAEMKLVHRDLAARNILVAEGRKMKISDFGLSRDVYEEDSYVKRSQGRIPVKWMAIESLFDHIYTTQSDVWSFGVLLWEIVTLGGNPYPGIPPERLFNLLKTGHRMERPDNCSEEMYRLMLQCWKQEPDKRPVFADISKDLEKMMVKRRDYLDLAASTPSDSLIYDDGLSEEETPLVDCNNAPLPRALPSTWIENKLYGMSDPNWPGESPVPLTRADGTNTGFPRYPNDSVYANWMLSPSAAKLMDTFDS
CaMKI, sequence (Q14012 whole entry, species assumed): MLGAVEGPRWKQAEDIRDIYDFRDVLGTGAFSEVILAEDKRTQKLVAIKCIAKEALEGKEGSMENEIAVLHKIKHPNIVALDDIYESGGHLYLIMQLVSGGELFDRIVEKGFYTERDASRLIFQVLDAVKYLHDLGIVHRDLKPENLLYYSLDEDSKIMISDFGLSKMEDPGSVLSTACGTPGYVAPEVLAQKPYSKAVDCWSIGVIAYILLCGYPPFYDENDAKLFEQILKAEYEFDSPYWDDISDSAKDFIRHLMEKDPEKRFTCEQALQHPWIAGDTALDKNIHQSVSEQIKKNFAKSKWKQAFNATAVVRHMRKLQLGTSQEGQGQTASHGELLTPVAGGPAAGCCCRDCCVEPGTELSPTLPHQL
GSK3β, sequence (P49841 whole entry, species assumed): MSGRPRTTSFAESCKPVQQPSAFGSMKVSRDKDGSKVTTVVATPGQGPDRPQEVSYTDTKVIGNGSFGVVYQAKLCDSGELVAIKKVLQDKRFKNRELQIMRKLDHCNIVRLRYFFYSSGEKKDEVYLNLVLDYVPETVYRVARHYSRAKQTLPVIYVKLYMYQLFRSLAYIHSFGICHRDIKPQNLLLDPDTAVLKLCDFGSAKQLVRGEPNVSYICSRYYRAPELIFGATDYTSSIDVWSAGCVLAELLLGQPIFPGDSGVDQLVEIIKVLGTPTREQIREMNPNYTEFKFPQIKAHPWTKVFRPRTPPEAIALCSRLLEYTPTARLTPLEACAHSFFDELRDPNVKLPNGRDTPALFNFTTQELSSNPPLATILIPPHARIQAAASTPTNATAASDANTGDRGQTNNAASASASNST
FGFR2, sequence (P21802 22-821, species assumed): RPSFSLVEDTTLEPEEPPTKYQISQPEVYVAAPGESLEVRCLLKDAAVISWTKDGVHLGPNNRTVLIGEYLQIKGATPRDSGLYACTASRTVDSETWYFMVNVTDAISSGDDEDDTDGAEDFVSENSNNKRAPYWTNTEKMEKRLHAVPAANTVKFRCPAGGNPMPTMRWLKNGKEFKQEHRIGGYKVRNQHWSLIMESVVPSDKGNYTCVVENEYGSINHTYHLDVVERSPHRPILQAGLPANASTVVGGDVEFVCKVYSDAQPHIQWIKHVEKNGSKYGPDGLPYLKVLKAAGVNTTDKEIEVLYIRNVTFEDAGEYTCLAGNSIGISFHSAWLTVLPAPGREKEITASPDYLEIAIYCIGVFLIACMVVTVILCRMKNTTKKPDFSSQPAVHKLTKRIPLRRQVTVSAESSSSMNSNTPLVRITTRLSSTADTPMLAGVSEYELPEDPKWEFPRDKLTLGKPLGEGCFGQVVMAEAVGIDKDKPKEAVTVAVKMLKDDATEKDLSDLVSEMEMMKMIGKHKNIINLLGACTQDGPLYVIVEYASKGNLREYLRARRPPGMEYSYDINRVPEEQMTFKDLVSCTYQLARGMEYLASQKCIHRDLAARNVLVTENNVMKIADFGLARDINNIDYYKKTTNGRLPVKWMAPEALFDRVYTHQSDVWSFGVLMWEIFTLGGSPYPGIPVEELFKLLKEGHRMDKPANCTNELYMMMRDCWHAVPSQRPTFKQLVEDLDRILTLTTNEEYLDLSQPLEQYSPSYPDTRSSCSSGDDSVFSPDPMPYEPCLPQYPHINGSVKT
CDK5/p25, sequence (Q00535 whole entry, species assumed): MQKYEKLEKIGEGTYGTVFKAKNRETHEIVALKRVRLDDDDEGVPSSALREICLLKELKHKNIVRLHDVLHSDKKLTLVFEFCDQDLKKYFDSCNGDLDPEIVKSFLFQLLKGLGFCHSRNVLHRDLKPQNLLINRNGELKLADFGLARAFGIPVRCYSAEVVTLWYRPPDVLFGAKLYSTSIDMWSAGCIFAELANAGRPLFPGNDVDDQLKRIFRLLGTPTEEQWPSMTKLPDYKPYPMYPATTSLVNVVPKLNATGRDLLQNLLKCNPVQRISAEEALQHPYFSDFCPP
CDK5/p25, sequence (Q15078 99-307 partner limits assumed, species assumed): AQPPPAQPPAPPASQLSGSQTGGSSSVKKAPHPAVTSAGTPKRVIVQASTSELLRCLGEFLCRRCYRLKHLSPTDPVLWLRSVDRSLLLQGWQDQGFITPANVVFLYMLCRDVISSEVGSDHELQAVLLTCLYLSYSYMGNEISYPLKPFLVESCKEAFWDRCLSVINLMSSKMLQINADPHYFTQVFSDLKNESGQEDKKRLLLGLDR

| Structure (SMILES) | % activity vs. DMSO, CaMKI (CaMKI) | % activity vs. DMSO, CDK1/cyclinB (CDK1/cyclinB) | % activity vs. DMSO, CDK5/p25 (CDK5/p25) | % activity vs. DMSO, FGFR2 (FGFR2) | % activity vs. DMSO, GSK3β (GSK3β) | % activity vs. DMSO, IGF-1R, activated (IGF-1R, activated) | % activity vs. DMSO, JAK2 (JAK2) | % activity vs. DMSO, PAK3 (PAK3) | % activity vs. DMSO, PAK6 (PAK6) | remaining activity at 5 µM (PKBβ; 5 μM compound, average of triplicate) | inhibition at 5 µM (PKBγ) | remaining activity at 5 µM (PKBγ) | % activity vs. DMSO, PKCδ (PKCδ) | % activity vs. DMSO, Ret (Ret) | PDK1 phosphorylation of Akt (Thr308) (Western blot) [1] | Dose-dependency of PDK-mediated Akt phosphorylation [1] | Migration of BCPAP cells (BCPAP cells) | remaining activity at 5 µM (PKBβ) |
| --- | --- | --- | --- | --- | --- | --- | --- | --- | --- | --- | --- | --- | --- | --- | --- | --- | --- | --- |
| NCCC(=O)Nc1ccc(-n2nc(C(F)(F)F)cc2-c2ccc3ccc4ccccc4c3c2)cc1 [Compound 4, 3-amino-N-(4-(5-(phenanthren-3-yl)-3-(trifluoromethyl)-1H-pyrazol-1-yl)phenyl)-propanamide] | 65% | 83% | 113% | 92% | 170% | 97% | 152% | 211% | 81% | 76% | > 50% | 33% | 85% | 97% | without altering PDK1 activity; also recorded: did not block PDK1-mediated Akt phosphorylation | not reduced | inhibited migration |  |
| CC(C)NC(=O)c1cc(-c2ccc3ccc4ccccc4c3c2)n(-c2ccc(NC(=O)CN)cc2)n1 [Compound 15, 1-(4-(2-Aminoacetamido)phenyl)-N-isopropyl-5-(phenanthren-3-yl)-1H-pyrazole-3-carboxamide] | 68% | 95% | 93% | 99% | 137% | 83% | 139% | 99% | 101% |  |  | 56% | 110% | 76% | without altering PDK1 activity; also recorded: did not block PDK1-mediated Akt phosphorylation | not reduced | inhibited migration | 84% |
